Assay results as given in article PMC8686256, “DZNep promotes mouse bone defect healing via enhancing both osteogenesis and osteoclastogenesis” (Stem Cell Research & Therapy, 2021).

Assays:
Format in all cases: cell-based, mouse
primary BMMs = test: CCK-8 cytotoxicity assay on BMMs
Experimental: Primary BMMs were obtained from whole bone marrow of male 6-week-old C57BL/6 mice. In brief, cells were extracted from the tibiae and femurs bone marrow and suspended in complete α-MEM (α-MEM supplemented with 30 ng/ml M-CSF, 10% FBS, and 1% penicillin/streptomycin). Then, the cell cultures were kept in a humid environment at 37 °C with 5% CO2 until they reached 90% confluence. The cytotoxic effects of DZNep on BMMs were then determined by the CCK-8 kit. Specifically, the BMMs were seeded into 96-well plates in triplicate at the density of 8 × 10^3 cells/well in presence of 100μL complete α-MEM for 24 h. After that, the cells were treated with increasing concentration of DZNep (control, 3.125, 6.25, 12.5, 25, 50, 100, 200 nM) for 24, 48, and 96 h. After treatment, 100μL medium contained 10% CCK-8 buffer was added to the wells and incubated in the dark at 37 °C for 2 h. The absorbance was then detected at 450 nm wavelength (650 nm reference) on a microplate reader.

[1] = system: Wnt signaling pathway-related and osteoblast-specified genes in BMSC; test: qPCR of Wnt and osteoblast genes in BMSC
Experimental: (§1) BMMs were cultured in 6-well plates at the density of 2 × 10^5 cells/well in α-MEM supplemented with M-CSF (30 ng/ml), RANKL (50 ng/ml). The cells were then treated with or without 25 nM DZNep for 0, 1, 3, 5 days, or with various concentrations of DZNEP (0, 6.25, 25 nM) for 5 days, or with negative control siRNA, negative control siRNA with DZNep, and Foxc1 small interfering RNA (siRNA) with DZNep for 5 days. Once the culture completed, the Axygen RNA Miniprep Kit (Axygen, Union City, CA, USA) was used to extract the total RNA. BMSC were seeded in a 6-well plate at a number of 4 × 10^5 cells/well and treated with 0, 25, 50, 100 nM of DZNep combined with osteoblast-cultured medium for 24 h, or with or without 100 nM DZNep combined with osteoblast-cultured medium for 0 and 7 days, or with negative control siRNA, negative control siRNA with DZNep, and Wnt4 small interfering RNA (siRNA) with DZNep combined with osteoblast-cultured medium for 7 days. Once the culture completed, the Axygen RNA Miniprep Kit (Axygen, Union City, CA, USA) was used to extract the total RNA. After reverse transcription to obtain cDNA from the RNA template by using the Prime Script RT reagent Kit was finished. The real-time PCR assay was subsequently performed by using the SYBR® Premix Ex Taq™ II on an ABI 7500 Sequencing Detection System (Applied Biosystems, Foster City, CA). Specifically, total volume of 10 μl liquid consisted by 5 μl of SYBR® Premix Ex Taq™ II, 1 μl of diluted cDNA, 0.4 μl of mixed forward and reverse primer, and 3.6 μl of ddH2O was added into each hole of 384 PCR plate. Conditions of the 40 cycles were: 95 °C for 5 s and 60 °C for 30 s. The melting curves and reverse transcription PCR (RT-PCR) were the methods to detect the specificity of amplification product. Each target’s quantity, run in triplicate, was normalized to Actin Beta (Actb). […]

BMMs [2] = test: Immunofluorescence of podosome actin belt; conditions: 25 nM, vs control
Experimental: BMMs in complete α-MEM with or without 25 nM DZNep were seeded in 6-well plates at a density of 1 × 10^5 cells/well and cultured for 6 days. Once the matured osteoclast could be observed, the plate was washed by PBS and then fixed with 4% paraformaldehyde. The 10 min 0.2% Triton X-PBS was then performed for permeabilizing. After three times washing by PBS, FITC-labeled phalloidin was added for 1 h in darkness to bounds with the cells F-actin ring. The nuclei were stained at RT for 5 min without light by 4′, 6-diamidino-2-phenylindole (DAPI). After the final PBS wash, the perimeter of the actin ring could be observed by the fluorescence microscope (Leica) and analyzed using ImageJ software (NIH, Bethesda, MD, USA).

BMMs [3] = test: Bone resorption assay on hydroxyapatite-coated Osteo Assay plates; conditions: 25 nM, compared with the control group
Experimental: To explore the effect of DZNep on the function of osteoclast, BMMs on complete α-MEM were seeded at the density of 1 × 10^4 cells/well, in triplicate, on the Osteo Assay Surface plates (Corning, NY, USA). After thirty-six hours, the culture medium was replaced by complete α-MEM, with RANKL (50 ng/mL), and various doses of DZNep (control, 6.25, 12.5, and 25 nM). For EZH2 gene knockdown studies, the cells were transfected with virus constructed of different EZH2 short hairpin RNA (shRNA) and negative control shRNA by mixed with polybrene (final concentration of 10ug/ml) for 48 h. The transfection mixture was then replaced by complete α-MEM added with puromycin for 24 h, and the survived BMMs were seeded into a 96-well plate, in triplicate, at a density of 1 × 10^4 cells/well. The medium needs to be constantly replaced until the osteoclast had matured for 1 day. For Foxc1 inhibition experiment, the cells were separately transfected with negative control siRNA, negative control siRNA with DZNep, and Foxc1 small interfering RNA (siRNA) with DZNep and by mixed with transfection reagent and osteoclast culture medium. The transfection mixture was then replaced every 2 days until the osteoclast had been observed for 2 days. […] The total area of resorption was photographed and then calculated by ImageJ software (NIH, Bethesda, MD, USA).

[4] = system: osteoclast-related genes in BMMs; test: qPCR of osteoclast-related genes in BMMs
Experimental: as §1

In the case of Nc1nccc2c1ncn2C1C=C(CO)C(O)C1O (stereo not shown) [DZNep, 3-Deazaneplanocin], the “cytotoxicity on primary BMMs” value (primary BMMs; 25 nM, CCK-8 at 24, 48, and 96 h) is reported as “no cytotoxicity was found”, the IC50 (primary BMMs; Mus musculus, at 96 h, CCK-8, read-out: inhibitory concentration (IC50) against BMMs) is reported as 326 nM and the “expression of Wnt4, Wnt1, Wnt6, Wnt10a (qPCR)” value ([1]; 0, 25, 50, 100 nM, 24 h) is reported as “increased in a concentration-dependent manner”. The “expression of Wnt genes after osteoblast-cultured medium for 7 days” value ([1]; 100 nM, 7 days) was “obviously upregulated”, the “expression of osteoblast-specified genes Runx2, Ocn, Opn, Col1a1” value ([1]; BMSC, 100 nM 0 and 7 days, 0-100 nM 24 h) was “enhanced in a time-dependent and dose-dependent manner” and the “podosome actin belt formation of osteoclast” value (BMMs [2]) was “promoted the podosome actin belt formation”. The bone resorption area (BMMs [3]) was “more than 30%”, the “expression of Trap, Ctsk, Atp6v0d2 (qPCR)” value ([4]; 25 nM, 0, 1, 3, 5 days) was “significantly enhanced in a time-dependent manner” and the “mRNA expression of Foxc1 in BMMs” value ([4]; RANKL and DZNep treatment for 5 days) was “upregulated”. For the same compound, the “expression of Calcr, c-FOS, Nfatc1, Trap, Ctsk, Atp6v0d2 (qPCR)” value ([4]; indicated DZNep concentrations, 5 days) was “upregulated in a dose-dependent manner”.
